Literature values, collected in patent US20240335498A1, “COMPOSITION AND METHODS OF TREATMENT USING TRANSDERMAL SUPPLEMENTATION” (Xygenyx Inc., priority 2023, published 2024).
Square brackets hold non-standard residues; d marks the D form. Peptide text beside a SMILES is read from it. Cit = NC(=O)NCCC[C@H](N)C(=O)O

Tests used:
[1] = dietary supplementation, doses up to 400 IU/day
[2] = tested on: F2-isoprostane; conditions: large doses of 1600-3200 IU/day
[3] = compared to α-tocopherol = 1.0
[4] = even when dietary intake occurs in equal portions
[5] = topical formulations, within four weeks of treatment
[6] = penetration enhancer used alone
[7] = tested on: wide dynamic range neurons in the ventroposterolateral nucleus of the thalamus
[8] = topical application, concentrations 0.5-5%
[9] = in vivo

Which results are given for `Cc1c(C)c2c(c(C)c1O)CC[C@@](C)(CCC[C@H](C)CCC[C@H](C)CCCC(C)C)O2` [α-tocopherol]?
reduction of the risk of coronary disease [1]: up to 34%; reduction of the risk of developing neurodegenerative diseases such as Alzheimer's Syndrome or dementia ([1]; controlled trials): ≤ 24%; blood plasma concentration of F2-isoprostane [2]: significantly lower; relative biological activity [3]: 1.0

For `Cc1c(O)cc2c(c1C)O[C@](C)(CCC[C@H](C)CCC[C@H](C)CCCC(C)C)CC2` [γ-tocopherol], which relative biological activity [3] is on record?
Its relative biological activity is 0.1.

And the “concentration in vivo relative to α-tocopherol” value [4]?
Its value is “roughly 10%”.

For `CC[C@H](C)[C@H](NC(=O)[C@H](CC(=O)O)NC(=O)[C@@H](N)CCCCN)C(=O)N[C@@H](CCCNC(N)=O)C(N)=O` [tripeptide-10 citrulline, Tripeptide-10 citrulline] (H-KDI[Cit]-NH2), which improvement of suppleness [5] is on record?
Its improvement of suppleness is ≤ 54%.

Which relative biological activity [3] does the source give for `Cc1cc(O)c(C)c2c1O[C@](C)(CCC[C@H](C)CCC[C@H](C)CCCC(C)C)CC2` [β-tocopherol] here?
Its relative biological activity is 0.5.

For `CC12CCC(CC1)C(C)(C)O2` [eucalyptol, Eucalyptol], which “increase of transdermal drug uptake (factor)” value [6] is on record?
The value was “more than 10”.

For `Cc1cc(O)cc2c1O[C@](C)(CCC[C@H](C)CCC[C@H](C)CCCC(C)C)CC2` [δ-tocopherol], which relative biological activity [3] is on record?
Its relative biological activity is 0.03.

With `C/C(=C\CO)CCC[C@H](C)CCC[C@H](C)CCCC(C)C` [phytol, Phytol] as the compound, how does the solubility in water read?
Its solubility in water is “nearly insoluble”.

With `CCCCCc1cc(O)c2c(c1)OC(C)(C)C1CCC(C)=CC21` (stereo not drawn) [THC, Δ-9-tetrahydrocannabinol] as the compound, how does the “power in mediating pain relative to morphine” value [7] read?
The value was “ten times more powerful”.

Which “increase of transdermal drug uptake (factor)” value [6] does the source give for `CC(C)[C@@H]1CC[C@@H](C)C[C@H]1O` [Menthol] here?
The value was ≥ 10.

Which “time to skin lightening effects” value [8] does the source give for `C=CCCCCCCCCC(=O)N[C@@H](Cc1ccccc1)C(=O)O` [UP, Undecylenoyl phenylalanine] here?
Its value is ≥ 7 days.

Which biological half-life [9] does the source give for “HGH: hormone comprising a peptide chain that is synthesized in the pituitary gland” here?
The biological half-life was 10-20 minutes.
